One assay deals with T1, M1 muscarinic receptor (Homo sapiens, UniProt P11229).
T1 construct: membranes
T1 sequence (P11229 1-460): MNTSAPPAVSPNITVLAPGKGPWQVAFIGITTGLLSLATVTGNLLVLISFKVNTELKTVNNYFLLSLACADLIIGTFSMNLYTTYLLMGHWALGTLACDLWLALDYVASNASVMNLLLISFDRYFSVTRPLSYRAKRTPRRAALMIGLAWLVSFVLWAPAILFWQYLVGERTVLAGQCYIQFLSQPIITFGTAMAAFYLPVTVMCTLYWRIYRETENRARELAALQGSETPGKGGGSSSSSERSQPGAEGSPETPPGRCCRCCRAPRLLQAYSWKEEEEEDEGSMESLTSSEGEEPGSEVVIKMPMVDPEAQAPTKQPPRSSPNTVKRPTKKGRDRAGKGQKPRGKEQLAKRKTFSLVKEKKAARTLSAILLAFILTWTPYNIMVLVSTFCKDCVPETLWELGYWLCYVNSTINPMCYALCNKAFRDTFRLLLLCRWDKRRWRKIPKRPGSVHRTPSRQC
As to the kind of experiment: [3H]NMS competition binding, membranes from CHO cells expressing M1. The conditions noted are these: competition with [3H]NMS, mean ± SD, three experiments, read-out: Binding affinity, negative logarithm of Ki (converted). Here is the method: (§1) Cells were cultured as described previously by Randakova et al.[33]. […] The medium was supplemented with 5 mM butyrate for the last 24 h of culture to increase receptor expression. Cells were washed with (phosphate-buffered saline (PBS), mechanically harvested by scraper and centrifugated 1000 × g for 5 min. Cell pellets were kept at − 80 °C.
(§2) Membranes were prepared as described previously by Randakova et al.[33]. Cells harvested from twenty 100 mm petri dishes (CHO) or 30 ml of cell suspension (Sf9) were suspended in 20 ml of ice-cold incubation medium (100 mM NaCl, 20 mM Na-HEPES, 10 mM MgCl2, pH 7.4) supplemented with 10 mM EDTA and homogenized on ice by two 30‐s strokes using a Polytron homogenizer (Ultra-Turrax; Janke & Kunkel GmbH & Co. KG, IKA-Labortechnik, Staufen, Germany) with a 30 s pause between strokes. Cell homogenates were centrifuged for 5 min at 1000×g to remove whole cells and cell nuclei. The resulting supernatants were centrifuged for 30 min at 30,000×g. Pellets were suspended in a fresh incubation medium, incubated on ice for 30 min, and centrifuged again. The resulting membrane pellets were kept at − 80 °C until assayed within 10 weeks.
(§3) Non-specific binding was determined in the presence of 10 μM unlabelled atropine. Incubations were terminated by filtration through filtration plates multiscreen 96 well Harvest (Merck Millipore) using a Brandel cell harvester (Brandel, Gaithersburg, MD, USA). Filtration plates were dried in a microwave oven, and then 40 μl of liquid scintillator Rotiscint eco plus (Roth) was added. The filtration plates were counted in the Microbeta scintillation counter (PerkinElmer). […] The inhibition constant KI was calculated according to Eq. (2).
(§4) Inhibition constants KI were calculated according to Eq. (2).2 KI=IC50/1+D/KD where IC50 is calculated according to Eq.

In the next assay the target is T2, M5 muscarinic receptor (Homo sapiens, UniProt P08912).
T2 construct: membranes
T2 sequence (P08912 1-532): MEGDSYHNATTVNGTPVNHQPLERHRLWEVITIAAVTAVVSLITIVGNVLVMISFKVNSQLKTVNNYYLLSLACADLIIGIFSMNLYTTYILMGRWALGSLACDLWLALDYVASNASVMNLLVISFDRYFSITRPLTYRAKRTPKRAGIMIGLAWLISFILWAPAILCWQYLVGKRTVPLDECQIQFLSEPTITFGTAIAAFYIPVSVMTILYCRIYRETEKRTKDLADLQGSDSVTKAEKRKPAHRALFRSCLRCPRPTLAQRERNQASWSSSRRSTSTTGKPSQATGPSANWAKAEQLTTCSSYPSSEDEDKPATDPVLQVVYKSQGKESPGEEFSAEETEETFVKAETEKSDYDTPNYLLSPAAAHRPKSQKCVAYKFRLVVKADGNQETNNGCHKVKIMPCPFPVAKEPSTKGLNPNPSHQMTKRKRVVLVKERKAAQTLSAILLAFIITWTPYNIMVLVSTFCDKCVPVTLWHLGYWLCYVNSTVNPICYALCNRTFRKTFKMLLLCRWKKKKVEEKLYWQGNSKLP
Put plainly: [3H]NMS competition binding, membranes from CHO cells expressing M5. Here is the method: as §1, §2, §3, §4

Another assay deals with M3 receptor (Homo sapiens, UniProt P20309). As to the kind of experiment: BRET real-time monitoring of G-protein activation via M3 in HEK293T/17 cells. It counts as cell-based. More on the design: expressed in transfected cells; host or cells: HEK293T/17 cells, transient transfection. As to conditions: for Activation of Gαq/11 types: saturating concentration (100 μM; 1 mM for JB-12-2, JB-13-1); for Response at Gα15: saturating concentration. The method, then: HE/K293T17 cells were obtained from The Global Bioresource Center ATCC (Manassas, VA, USA). Cells were grown in 100 mm petri dishes in Dulbecco’s modified Eagle’s medium (DMEM) supplemented with 10% fetal bovine serum (FBS), MEM non-essential amino acids, 1 mM sodium pyruvate, and antibiotics (100 units/ml penicillin and 100 μg/ml streptomycin) at 37 °C in a humidified incubator containing 5% CO2[41]. Transfection was performed according to Masuho et al.[41]. […] Gα14 subunit was co-transfected with Ric-8A chaperone (0.21 μg). Cells were cotransfected with a pcDNA3.1 construct encoding the catalytic subunit of pertussis toxin (PTX-S1) (0.21 μg) and constructs encoding Gα15, Gα14, Gα11, Gαq to ensure that the small BRET signals were not contaminated by the possible recruitment of endogenous Gαi/o proteins. The empty vector pcDNA3.1 was used to normalize the amount of DNA in each transfection.
To examine the activation of G-protein signalling in live cells, agonist-dependent cellular measurements of BRET between Venus-Gβ1γ2 and masGRK3ct-Nluc were performed as described by Masuho et al.[41]. […] Cells were harvested by centrifugation at 500×g for 5 min and were resuspended in BRET buffer. About 50,000 to 100,000 cells per well were distributed in 96-well flat-bottomed white microplates (Greiner Bio-One) in a volume of 25 µl. […] BRET measurements were made with a microplate reader (POLARstar Omega, BMG Labtech) equipped with two emission photomultiplier tubes, which enabled the detection of two emissions simultaneously with the highest possible resolution of 20 ms per data point. All measurements were performed at room temperature. […] The average baseline value (basal BRET ratio) recorded before stimulation of cells with an agonist was subtracted from the experimental BRET signal values to obtain the ΔBRET ratio.

Molecules are shown by their SMILES. Read-outs that look alike come from different tables or passages of the source.

One may read the Ki as the dissociation constant of the complex between target and ligand, obtained from inhibition or displacement.

Sequence of M3 receptor (P20309 whole entry): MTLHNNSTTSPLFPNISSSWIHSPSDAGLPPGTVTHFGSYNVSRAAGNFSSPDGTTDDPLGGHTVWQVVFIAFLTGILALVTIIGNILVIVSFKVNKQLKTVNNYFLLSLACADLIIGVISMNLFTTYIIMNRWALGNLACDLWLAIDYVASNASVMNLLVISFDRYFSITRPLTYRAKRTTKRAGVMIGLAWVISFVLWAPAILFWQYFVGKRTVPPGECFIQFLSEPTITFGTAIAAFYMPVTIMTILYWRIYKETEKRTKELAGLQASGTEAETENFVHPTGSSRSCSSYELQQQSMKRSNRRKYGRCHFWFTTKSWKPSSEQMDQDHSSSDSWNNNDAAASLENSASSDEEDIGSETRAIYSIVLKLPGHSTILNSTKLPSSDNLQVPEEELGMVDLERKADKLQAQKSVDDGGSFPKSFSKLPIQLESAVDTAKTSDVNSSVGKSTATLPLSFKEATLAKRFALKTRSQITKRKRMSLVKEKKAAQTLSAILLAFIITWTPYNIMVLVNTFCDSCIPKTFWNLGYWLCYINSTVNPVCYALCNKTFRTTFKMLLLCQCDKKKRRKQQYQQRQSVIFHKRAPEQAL

For the compound `c1csc(C[N+]23CCC(CC2)CC3)c1` [JB-8A], the Ki is 6.92 µM on M1 muscarinic receptor and 9.33 µM on M5 muscarinic receptor. Moreover, on M3 receptor, the “Activation of Gαq/11 types” value was “did not activate any Gαq/11 type”.

In the case of `C[N+]1(Cc2cccs2)CCOCC1` [JB-12-2], the inhibition constant (Ki) at M1 muscarinic receptor is 85.1 µM. The compound further had a Ki at M5 muscarinic receptor of 112 µM. Besides, on M3 receptor, the “Response at Gα15” value was “activated” and the “Activation of Gαq/11 types” value is listed as “activated all Gαq/11 types”.

For `COC(=O)C1=CCCN(Cc2cccs2)C1` [JB-13-1], the Ki on M1 muscarinic receptor was 115 µM; on M5 muscarinic receptor (M5, competition with [3H]NMS, mean ± SD, three experiments, read-out: Binding affinity, negative logarithm of Ki (converted)), 468 µM. Besides, the “Activation of Gαq/11 types” value on M3 receptor is “did not activate any Gαq/11 type”.

With `C[N+]1(Cc2cccs2)CC=CCC1` (centres unmarked) [JR-6, 1-methyl-1-[(thiophen-2-yl)methyl]-1,2,3,6-tetra hydropyridin-1-ium], at M3 receptor (100 μM), the “Activation magnitude at Gq, % of CBC” value is listed as “approximately 30%” and the “Response at Gα14” value was “weak response”. Besides, at M3 receptor, the “Response at Gα15” value is reported as “no response”.

With `C[N+]1(Cc2ccc(Cl)s2)CC=CCC1` (centres unmarked) [PN-152, 1-[(5-chlorothiophen-2-yl)methyl]-1-methyl-1,2,3,6-tetrahydropyridin-1-ium], the “Activation magnitude at Gq, % of CBC” value on M3 receptor (100 μM) came to 10%.

The values are drawn from PMC11053168, “Agonist-selective activation of individual G-proteins by muscarinic receptors” (Scientific Reports, 2024).
